Structures can show the parent of a compound that is named as a salt.

Consider 19 compounds from patent publication US11149018B2, “Substituted N-arylethyl-2-aminoquinoline-4-carboxamides and use thereof” (Bayer Aktiengesellschaft, priority 2017, dated 2021).

Sequence of FP receptor (P43088 whole entry): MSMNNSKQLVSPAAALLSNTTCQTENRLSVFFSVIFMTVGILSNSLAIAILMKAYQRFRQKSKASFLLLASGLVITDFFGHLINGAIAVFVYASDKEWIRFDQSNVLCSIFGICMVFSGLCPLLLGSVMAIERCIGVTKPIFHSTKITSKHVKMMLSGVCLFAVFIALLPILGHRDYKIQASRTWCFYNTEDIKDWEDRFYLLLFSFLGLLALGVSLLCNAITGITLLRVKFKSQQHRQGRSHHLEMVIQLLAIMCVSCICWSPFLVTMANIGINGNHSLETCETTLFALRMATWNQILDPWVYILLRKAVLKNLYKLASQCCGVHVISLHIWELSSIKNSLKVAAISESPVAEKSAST

In this assay the target is FP receptor (Homo sapiens (Human), UniProt P43088). The assay can be described thus: In vitro test of inhibition of human FP receptor activity (PGF2α-induced calcium flux in FP-expressing CHEM1 cells). Conditions: PGF2α 2 nM, some mean values of multiple determinations. It counts as cell-based. Summed up:
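FP antagonism in FP-expressing CHEM1 cells loaded with Fluo-8. Compound preincubated 10 min at 37° C, then receptor stimulated with 2 nM (final) PGF2α in calcium-free Tyrode with 2 mM CaCl2.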
As for `Cc1c(N2CCCC2)nc2ccc(Br)cc2c1C(=O)NCC(CCC(=O)O)c1c(F)cccc1C(F)(F)F` (single isomer, unassigned; (-)) [Example 165, (−)-5-({[6-Bromo-3-methyl-2-(pyrrolidin-1-yl)quinolin-4-yl]carbonyl}amino)-4-[2-fluoro-6-(trifluoromethyl)phenyl]pentanoic acid], the IC50 worked out at 2.9 nM.
For `Cc1c(N2CCCC(F)(F)C2)nc2ccc(Br)cc2c1C(=O)NCC(CCC(=O)O)c1c(F)cccc1C(F)(F)F` (single isomer, unassigned; (-)) [Example 167, (−)-5-({[6-Bromo-2-(3,3-difluoropiperidin-1-yl)-3-methylquinolin-4-yl]carbonyl}amino)-4-[2-fluoro-6-(trifluoromethyl)phenyl]pentanoic acid] the value was 3.7 nM.
For `Cc1c(N2CCCCC2)nc2ccc(Br)cc2c1C(=O)NCC(CCC(=O)O)c1c(Cl)ccc(Cl)c1Cl` (single isomer, unassigned; (-)) [Example 173, (−)-5-({[6-Bromo-3-methyl-2-(piperidin-1-yl)quinolin-4-yl]carbonyl}amino)-4-(2,3,6-trichlorophenyl)pentanoic acid] the value was 2.2 nM; for `Cc1c(N2CCCC2)nc2ccc(Br)cc2c1C(=O)NCC(CCC(=O)O)c1c(Cl)ccc(Cl)c1Cl` (single isomer, unassigned; (-)) [Example 176, formate], 7.8 nM.
The result for `Cc1c(N2CCCC(F)(F)C2)nc2ccc(Br)cc2c1C(=O)NCC(CCC(=O)O)c1c(Cl)ccc(Cl)c1Cl` (single isomer, unassigned; (-)) [Example 179, (−)-5-({[6-Bromo-2-(3,3-difluoropiperidin-1-yl)-3-methylquinolin-4-yl]carbonyl}amino)-4-(2,3,6-trichlorophenyl)pentanoic acid] reads 2.3 nM; that for `Cc1c(N2CCCCC2)nc2ccc(Br)cc2c1C(=O)NCC(CCC(=O)O)c1c(F)cccc1OC(F)F` (single isomer, unassigned; (-)) [Example 183, (−)-5-({[6-Bromo-3-methyl-2-(piperidin-1-yl)quinolin-4-yl]carbonyl}amino)-4-[2-(difluoromethoxy)-6-fluorophenyl]pentanoic acid], 1.6 nM.
With `Cc1c(N2CCCC(F)C2)nc2ccc(Br)cc2c1C(=O)NCC(CCC(=O)O)c1ccccc1Cl` (single isomer, unassigned; (-)) [Example 185, (−)-5-[({6-Bromo-2-[3-fluoropiperidin-1-yl]-3-methylquinolin-4-yl}carbonyl)amino]-4-(2-chlorophenyl)pentanoic acid], the IC50 amounted to 4 nM.
For `Cc1c(N2CCCC(F)C2)nc2ccc(Br)cc2c1C(=O)NCC(CCC(=O)O)c1ccccc1Cl` (single isomer, unassigned; (-)) [Example 186, (−)-5-[({6-Bromo-2-[3-fluoropiperidin-1-yl]-3-methylquinolin-4-yl}carbonyl)amino]-4-(2-chlorophenyl)pentanoic acid] the value was 8.6 nM; for `CCC1CCCN(c2nc3ccc(Br)cc3c(C(=O)NCC(CCC(=O)O)c3ccccc3C(F)(F)F)c2C)C1` (single isomer, unassigned; (-)) [Example 194, (−)-5-[({6-Bromo-2-[3-ethylpiperidin-1-yl]-3-methylquinolin-4-yl}carbonyl)amino]-4-[2-(trifluoromethyl)phenyl]pentanoic acid], 11 nM; for `Cc1c(N2CCCC(C)C2)nc2ccc(Br)cc2c1C(=O)NCC(CCC(=O)O)c1ccccc1C(F)(F)F` (single isomer, unassigned; (-)) [Example 199, (−)-5-[({6-Bromo-3-methyl-2-[3-methylpiperidin-1-yl]quinolin-4-yl}carbonyl)amino]-4-[2-(trifluoromethyl)phenyl]pentanoic acid], 1.6 nM.
For `Cc1c(N2CCCC(C)C2)nc2ccc(Br)cc2c1C(=O)NCC(CCC(=O)O)c1ccccc1C(F)(F)F` (single isomer, unassigned; (-)) [Example 200, (−)-5-[({6-Bromo-3-methyl-2-[3-methylpiperidin-1-yl]quinolin-4-yl}carbonyl)amino]-4-[2-(trifluoromethyl)phenyl]pentanoic acid] the value was 17 nM; for `Cc1c(N2CCCC(F)C2)nc2ccc(Br)cc2c1C(=O)NCC(CCC(=O)O)c1ccccc1OC(F)(F)F` (single isomer, unassigned; (-)) [Example 201, (−)-5-[({6-Bromo-2-[3-fluoropiperidin-1-yl]-3-methylquinolin-4-yl}carbonyl)amino]-4-[2-(trifluoromethoxy)phenyl]pentanoic acid], 2.7 nM; for `Cc1c(N2CCCC(F)C2)nc2ccc(Br)cc2c1C(=O)NCC(CCC(=O)O)c1ccccc1OC(F)(F)F` (single isomer, unassigned; (-)) [Example 202, (−)-5-[({6-Bromo-2-[3-fluoropiperidin-1-yl]-3-methylquinolin-4-yl}carbonyl)amino]-4-[2-(trifluoromethoxy)phenyl]pentanoic acid], 1.7 nM.
For `CCC1CCCN(c2nc3ccc(Br)cc3c(C(=O)NCC(CCC(=O)O)c3ccccc3OC(F)(F)F)c2C)C1` (single isomer, unassigned; (-)) [Example 207, (−)-5-[({6-Bromo-2-[3-ethylpiperidin-1-yl]-3-methylquinolin-4-yl}carbonyl)amino]-4-[2-(trifluoromethoxy)phenyl]pentanoic acid] the value was 22 nM.
Regarding `Cc1c(N2CCCC(C)C2)nc2ccc(Br)cc2c1C(=O)NCC(CCC(=O)O)c1ccccc1OC(F)(F)F` (single isomer, unassigned; (-)) [Example 209, (−)-5-[({6-Bromo-3-methyl-2-[3-methylpiperidin-1-yl]quinolin-4-yl}carbonyl)amino]-4-[2-(trifluoromethoxy)phenyl]pentanoic acid], the IC50 worked out at 7 nM.
Take `Cc1c(N2CCCC(C)C2)nc2ccc(Br)cc2c1C(=O)NCC(CCC(=O)O)c1ccccc1OC(F)(F)F` (single isomer, unassigned; (-)) [Example 210, (−)-5-[({6-Bromo-3-methyl-2-[3-methylpiperidin-1-yl]quinolin-4-yl}carbonyl)amino]-4-[2-(trifluoromethoxy)phenyl]pentanoic acid]: the IC50 came out at 0.68 nM.
As for `Cc1ccc(F)cc1C(CCC(=O)O)CNC(=O)c1c(C)c(N2CCCC(F)(F)C2)nc2ccc(Br)cc12` (single isomer, unassigned; (-)) [Example 213, (−)-5-({[6-Bromo-2-(3,3-difluoropiperidin-1-yl)-3-methylquinolin-4-yl]carbonyl}amino)-4-(5-fluoro-2-methylphenyl)pentanoic acid], the IC50 amounted to 10 nM.
The result for `Cc1c(N2CCCC2)nc2ccc(Br)cc2c1C(=O)NCC(CCC(=O)O)c1c(F)ccc(F)c1Cl` (single isomer, unassigned; (-)) [Example 216, (−)-5-({[6-Bromo-3-methyl-2-(pyrrolidin-1-yl)quinolin-4-yl]carbonyl}amino)-4-(2-chloro-3,6-difluorophenyl)pentanoic acid] reads 2.9 nM; that for `Cc1c(N2CCCC(F)(F)C2)nc2ccc(Br)cc2c1C(=O)NCC(CCC(=O)O)c1c(F)ccc(F)c1Cl` (single isomer, unassigned; (-)) [Example 218, (−)-5-({[6-Bromo-2-(3,3-difluoropiperidin-1-yl)-3-methylquinolin-4-yl]carbonyl}amino)-4-(2-chloro-3,6-difluorophenyl)pentanoic acid], 1.2 nM.
